{"source": "paper PMC8713996", "about": "“An anti-tuberculosis compound screen using a zebrafish infection model identifies an aspartyl-tRNA synthetase inhibitor” (Disease Models & Mechanisms, 2021)", "key": {"[1]": {"tested_on": "Mtb-R-TBA161-C (aspS F526L)", "format": "cell-based, Mycobacterium tuberculosis"}, "[2]": {"tested_on": "Mtb carrying pMS2-aspSMmar or pMS2-aspSMmarR168G", "format": "cell-based, Mycobacterium tuberculosis"}}}
{"smiles": "O=c1c2cc(Cl)cc(Cl)c2oc2nc3n(c(=O)c12)CCCS3", "note": "[TBA161-C, 9,11-dichloro-3,4-dihydro-chromeno[2′,3′:4,5]pyrimido[2,1-b][1,3]thiazine-6,7-dione]", "values": [{"measurement": "MIC90, TBA161-C-resistant Mtb strains", "setting": "[1]", "result": "exceeding 20 µM"}, {"measurement": "MIC90 of resistant Mtb strains compared to the parental strain", "setting": "[1]", "result": "more than tenfold higher"}, {"measurement": "Increase of MIC90, Mtb overexpressing wild-type aspS vs wild-type strain", "setting": "[2]", "result": "fivefold"}, {"measurement": "MIC90, Mtb overexpressing mutated aspS (aspSMmarR168G)", "setting": "[2]", "result": "> 80", "unit": "µM"}]}
